The target of one test is T1, PPARα (Homo sapiens, UniProt Q07869).
T1 sequence (Q07869 200-468 limits assumed): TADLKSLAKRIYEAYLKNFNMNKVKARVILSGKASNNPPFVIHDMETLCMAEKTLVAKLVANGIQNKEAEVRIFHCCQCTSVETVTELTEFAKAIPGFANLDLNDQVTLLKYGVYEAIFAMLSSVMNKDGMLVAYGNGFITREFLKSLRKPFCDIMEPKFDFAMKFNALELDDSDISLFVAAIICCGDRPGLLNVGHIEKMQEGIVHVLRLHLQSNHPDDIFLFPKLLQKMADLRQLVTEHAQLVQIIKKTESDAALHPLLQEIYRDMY
The test is described as follows: Crossover-curve PPAR transactivation test (PPARα). It is filed as cell-based. To be noted: HeLN cells stably transfected with ERE-βGlob-Luc-SV-Neo and Gal-hPPARα; Schild regression against reference agonist; n.a. means not active; read-out: PPARα Kd app. The method, then:
(§1) The activation of PPAR receptors with an agonist (activator) in HeLN cells leads to the expression of a reporter gene, luciferase, which, in the presence of a substrate, generates light. The modulation of the PPAR receptors is measured by quantifying the luminescence produced after incubating the cells in the presence of a reference agonist. The ligands displace the agonist from its site. The measurement of the activity is performed by quantifying the light produced. This measurement makes it possible to determine the modulatory activity of the compounds according to the invention by determining the constant that represents the affinity of the molecule for the PPAR receptor. Since this value can fluctuate depending on the basal activity and the expression of the receptor, it is referred to as Kd apparent (KdApp in nM).
(§2) To determine this constant, “crossover curves” of the test product against a reference agonist are performed in a 96-well plate: 10 concentrations of the test product plus a concentration 0 are arranged in a line, and 7 concentrations of the agonist plus a concentration 0 are arranged in a column. This represents 88 measurement points for 1 product and 1 receptor. The remaining 8 wells are used for repeatability controls.
(§3) Measurements are also taken for total agonist controls with the same products.
(§4) The HeLN cell lines used are stable transfectants containing the plasmids ERE-βGlob-Luc-SV-Neo (reporter gene) and PPAR (α, δ, γ) Gal-hPPAR. These cells are inoculated into 96-well plates at a rate of 10 000 cells per well in 100 μl of DMEM medium without phenol red and supplemented with 10% of defatted calf serum. The plates are then incubated at 37° C. and 7% CO2 for 16 hours.
(§5) The various dilutions of the test products and of the reference ligand are added at a rate of 5 μl per well. The plates are then incubated for 18 hours at 37° C. and 7% CO2. The culture medium is removed by turning over and 100 μl of a 1:1 PBS/luciferine mixture are added to each well. After 5 minutes, the plates are read by the luminescence detector.

For a further test, the target named is T2, PPARγ (Homo sapiens, UniProt P37231).
T2 sequence (P37231 238-505 limits assumed): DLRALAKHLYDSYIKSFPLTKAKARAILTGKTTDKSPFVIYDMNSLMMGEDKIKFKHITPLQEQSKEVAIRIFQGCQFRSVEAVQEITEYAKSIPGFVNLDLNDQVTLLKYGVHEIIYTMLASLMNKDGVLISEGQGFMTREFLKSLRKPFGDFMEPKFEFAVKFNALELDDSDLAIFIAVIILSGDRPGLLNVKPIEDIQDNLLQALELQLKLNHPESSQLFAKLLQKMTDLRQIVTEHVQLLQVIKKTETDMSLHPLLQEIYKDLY
The test is described as follows: Crossover-curve PPAR transactivation test (PPARγ). It is filed as cell-based. To be noted: HeLN cells stably transfected with ERE-βGlob-Luc-SV-Neo and Gal-hPPARγ; Schild regression against reference agonist; n.a. means not active; read-out: PPARγ Kd app. The method, then: as §1, §2, §3, §4, §5

Counter-ions that a name gives are not always drawn.

Turning to `CCCCCCCC(=O)N(C)Cc1ccc(-c2ccc(C[C@H](OCC)C(=O)O)cc2)s1` [Example 6, 2(S)-Ethoxy-3-(4-{5-[(methyloctanoylamino)methyl]thiophen-2-yl}phenyl)propanoic acid], the Kd at PPARα came to 1000 nM; at PPARγ, 2 nM. In the same order, the values of `CCCCCCCNC(=O)N(C)c1cccc(-c2ccc(C[C@H](OCC)C(=O)O)cc2)n1` [Example 10, 2(S)-Ethoxy-3-{4-[6-(3-heptyl-1-methylureido)pyrid-2-yl]phenyl}propanoic acid hydrochloride] are 120 nM and 0.5 nM.

In the case of `CCCCCCCNC(=O)N(C)c1cccc(-c2ccc(CC(OCC)C(=O)O)cn2)c1` (stereo not shown) [Example 20, 2-Ethoxy-3-{6-[3-(3-heptyl-1-methylureido)phenyl]pyrid-3-yl}propanoic acid], the Kd at PPARγ was found to be 4 nM. Still for that read-out and setting: to “N-{3-[5-(2,4-dioxothiazolidin-5-ylmethyl)pyrid-2-yl]benzyl}-N-methyloctanoylamide [Example 4]” belongs 500 nM. As for `CCCCCCCC(=O)N(C)Cc1cc(-c2ccc(C[C@H](OCC)C(=O)O)cc2)cs1` [Example 5, 2(S)-Ethoxy-3-(4-{5-[(methyloctanoylamino)methyl]thiophen-3-yl}phenyl)propanoic acid], the figures for the Kd on PPARα and on PPARγ were 4000 nM and 0.06 nM, respectively. As for `CCCCCNC(=O)N(C)c1ncc(-c2ccc(C[C@H](OCC)C(=O)O)cc2)s1` [Example 8, 2(S)-Ethoxy-3-{4-[2-(1-methyl-3-pentylureido)thiazol-5-yl]phenyl}propanoic acid], on PPARγ, the Kd turned out to be 30 nM. As to `CCCCCC(=O)N(C)Cc1cc(-c2ccc(C[C@H](Nc3ccccc3C(=O)c3ccccc3)C(=O)O)cc2)cs1` [Example 15, 2(S)-(2-Benzoylphenylamino)-3-(4-{5-[(hexanoylmethylamino)methyl]thiophen-3-yl}phenyl)propanoic acid], the Kd was determined as 2000 nM on PPARα and 1000 nM on PPARγ.

Take `CCCCCCCNC(=O)N(C)c1ncc(-c2ccc(C[C@H](OCC)C(=O)O)cc2)s1` [Example 7, 2(S)-Ethoxy-3-{4-[2-(3-heptyl-1-methylureido)thiazol-5-yl]phenyl}propanoic acid]: the Kd on PPARα turned out to be 2000 nM; at PPARγ it was 60 nM.

(Values after patent US8022079B2, “Methods of modulating PPAR gamma-type receptors” (Galderma Research & Development, priority 2003, dated 2011).)
